Measurements from BigSolDB 2.1.

Cl.Cl.Fc1ccc(C(c2ccc(F)cc2)N2CCN(C/C=C/c3ccccc3)CC2)cc1
solubility (mole fraction)
Conditions | in acetone | in acetonitrile | in ethanol | in ethyl acetate | in isobutanol | in isopropanol | in methanol | in methyl acetate | in n-butanol | in n-propanol
293.15 K | 0.00271 | 0.00219 | 0.00522 | 0.00146 | 0.00186 | 0.0026 | 0.00604 | 0.00133 | 0.00185 | 0.00472
298.15 K | 0.00338 | 0.00275 | 0.00649 | 0.00184 | 0.00236 | 0.00328 | 0.0076 | 0.00168 | 0.00236 | 0.00587
303.15 K | 0.00422 | 0.00343 | 0.00792 | 0.00229 | 0.00296 | 0.00406 | 0.00934 | 0.00211 | 0.00296 | 0.00714
308.15 K | 0.00518 | 0.00428 | 0.00975 | 0.00285 | 0.00371 | 0.00501 | 0.0115 | 0.00263 | 0.00372 | 0.00877
313.15 K | 0.00638 | 0.00528 | 0.0119 | 0.00353 | 0.00462 | 0.00618 | 0.0139 | 0.00326 | 0.00464 | 0.0108
318.15 K | 0.0078 | 0.00651 | 0.0145 | 0.00434 | 0.00573 | 0.00756 | 0.017 | 0.004 | 0.00575 | 0.013
323.15 K | 0.00948 | 0.008 | 0.0176 | 0.0053 | 0.00711 | 0.00919 | 0.0207 | 0.00494 | 0.00712 | 0.0157
328.15 K | 0.0115 | 0.00977 | 0.0211 | 0.00644 | 0.00873 | 0.0112 | 0.025 | 0.00603 | 0.00875 | 0.0189
333.15 K | 0.0139 | 0.0119 | 0.0252 | 0.00782 | 0.0106 | 0.0136 | 0.0298 | 0.00736 | 0.0107 | 0.0225
